Holding throughout (assay): NCI-60 cell line screen, 48 h
Assay [1] relates to LXFL 529.
The subject of assay [2] is OVCAR-8.
Assay [3] has as its system IGROV-1.
Assay [4] relates to SK-MEL-2.
Assay [5] relates to SW-620.
Assay [6] has as its system U-251.
The subject of assay [7] is TK-10.
The subject of assay [8] is HCT-15.
Assay [9] relates to SNB-75.
The test system of assay [10] is SN12C.
Assay [11] relates to HCC 2998.
The subject of assay [12] is M14.
In assay [13] the test system is A549.
The test system of assay [14] is OVCAR-3.
In assay [15] the test system is SNB-19.
Assay [16] deals with EKVX.
Assay [17] has as its system RPMI-8226.
Assay [18] relates to OVCAR-4.
The subject of assay [19] is NCI-H226.

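Each compound was tested at five concentrations against cells in 96-well plates for 48 hours. At the GI50, growth is halved.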 The source made the active and inactive calls. Cut-off read from the data, not from the text of the source: active = GI50 up to about 1.1 µM and inactive = higher. A value given as a limit tells only on which side of the number the result lay.

With `O=S(=O)(O)c1ccc(-c2c3nc(c(-c4ccc(S(=O)(=O)O)cc4)c4ccc([nH]4)c(-c4ccc(S(=O)(=O)O)cc4)c4nc(c(-c5ccc(S(=O)(=O)O)cc5)c5ccc2[nH]5)C=C4)C=C3)cc1`, the GI50 in assay [1] was > 100 µM (inactive); in assay [2] it was > 100 µM (inactive); in assay [3], > 100 µM (inactive); in [4] it was 27.1 µM (inactive); in assay [5], > 100 µM (inactive); in assay [6], > 100 µM (inactive). For the same compound, the GI50 was > 100 µM (inactive) in assay [7]; above 100 µM in assay [8]; 17.3 µM (inactive) in assay [9]; > 100 µM (inactive) in assay [10]; > 100 µM (inactive) in assay [11]; 90.6 µM (inactive) in assay [12]. The GI50 in [13] is 55 µM (inactive); in [14], > 100 µM (inactive); in assay [15], > 100 µM (inactive); in assay [16] it was > 100 µM (inactive); in assay [17] it was > 100 µM (inactive); in [18] it was 45.6 µM (inactive).

`C=C(C)C1CC[C@]2(C(=O)O)CCC3(C)[C@H](CCC4[C@@]5(C)CC[C@H](OC6OC(CO)C(O)C6OC6OC(C)C(O)C(O)C6O)[C@@](C)(CO)C5CC[C@]43C)C12` (stereo partly specified): the GI50 in [1], in assay [2], in assay [3], in assay [4], in assay [5] and in assay [6] was > 100 µM (inactive) in each case. For the same compound, the GI50 in assay [7] is > 100 µM (inactive); in assay [8], above 100 µM; in assay [9] it was > 100 µM (inactive); in [10], > 100 µM (inactive); in [11], > 100 µM (inactive); in assay [12] it was > 100 µM (inactive). The GI50 in assay [13], in assay [14], in [15], in [19], in assay [16] and in assay [18] was > 100 µM (inactive) throughout.

As to `O=C(/C=C/c1ccccc1O)c1cccnc1`, the GI50 in assay [1], in assay [2], in assay [3], in [4], in assay [5] and in [6] was > 100 µM (inactive) each time. The GI50 in assay [7], in assay [9], in assay [10], in assay [11], in assay [12] and in [13] was > 100 µM (inactive) throughout. Also, the GI50 in assay [14], in [15], in assay [19], in assay [16] and in assay [18] was > 100 µM (inactive) in each case.

For `CCOc1ccc(/N=N/c2ccc3oc(=O)c(C(=O)Nc4ccc(OC)cc4)cc3c2)cc1`, the GI50 is 6.82 µM (inactive) in [1]; 12.7 µM (inactive) in assay [2]; 23.5 µM (inactive) in assay [3]; 18.6 µM (inactive) in assay [4]; 18.5 µM (inactive) in [5]; 14.1 µM (inactive) in [6]. Also, the GI50 in [7] is 17.1 µM (inactive); in assay [8] it was 6.12 µM; in assay [9], 33.7 µM (inactive); in assay [10], 18 µM (inactive); in assay [11], 10.8 µM (inactive); in assay [12] it was > 10 µM (inactive). Moreover, the GI50 in assay [13] was 40.1 µM (inactive); in [14] it was 19.5 µM (inactive); in [15], 14 µM (inactive); in assay [16] it was 26.6 µM (inactive); in assay [17], 11.1 µM (inactive); in assay [18], 7.1 µM (inactive).
